The values below are quoted from earlier work in US20090275622A1, “NIZATIDINE FORMULATIONS” (priority 2008, published 2009).

For this data set the following is noted: crystalline solid.

In the case of `CN/C(=C\[N+](=O)[O-])NCCSCc1csc(CN(C)C)n1` [Nizatidine, N-[2-[[[2-[(dimethylamino)methyl]-4-thiazolyl]methyl]thio]ethyl]-N′-methyl-2-nitro-1,1-ethenediamine], the Solubility in water result is recorded as “soluble in water”.
